# Where two headings read alike, the source gives them in different places.
# Tests used:
# Type in all cases: cell-based
# [1] = tested on: Staphylococcus epidermidis 835; test: MIC, broth microdilution, SE 835
# Procedure: (§1) Antibacterial activity in vitro is investigated by broth microdilution method in Meuller-Hinton broth as recommended by NCCLS. All strains tested are clinical isolates either sensitive or resistant to natural glycopeptides. MIC values were determined using the CLSI-recommended broth microdilution procedure (Clinical and Laboratory Standards Institute, Methods for Dilution Antimicrobial Susceptibility Tests for Bacteria That Grow Aerobically; Approved Standard-Seventh Edition.). Automated liquid handlers (Multidrop 384, Labsystems, Helsinki, Finland; Biomek 2000 and Multimek 96, Beckman Coulter, Fullerton Calif.) were used to conduct serial dilutions and liquid transfers. The MIC value for vancomycin is given for comparison. The abbreviations for organisms tested are as follow: SA 100—Staphylococcus aureus 100 (ATCC 29213); SA 757—Staphylococcus aureus 757 (MRSA); SA 2012—Staphylococcus aureus 2012 (VISA); SE 835—Staphylococcus epidermidis 835; SE 831—Staphylococcus epidermidis 831 (MRSE); EFc 101—Enterococcus faecalis 101 (ATCC 29212); EFc 848—Enterococcus faecalis 848 (VRE, Van A); EFcm 800—Enterococcus faecium 800; EFcm 752—Enterococcus faecium 752 (VRE, Van A); SPNE 1195—Streptococcus pneumoniae 1195 (ATCC 49619); SPY 712—Streptococcus pyogenes 712.
# [2] = tested on: Staphylococcus aureus 100 (ATCC 29213); test: MIC, broth microdilution, SA 100; conditions: for MIC: Staphylococcus aureus
# Procedure: as §1
# [3] = tested on: Staphylococcus aureus 2012 (VISA); test: MIC, broth microdilution, SA 2012
# Procedure: as §1
# Enterococcus faecium 800 = test: MIC, broth microdilution, EFcm 800
# Procedure: as §1
# [4] = tested on: Streptococcus pyogenes 712; test: MIC, broth microdilution, SPY 712
# Procedure: as §1
# [5] = tested on: Staphylococcus aureus 757 (MRSA); test: MIC, broth microdilution, SA 757
# Procedure: as §1
# [6] = tested on: Enterococcus faecium 752 (VRE, Van A); test: MIC, broth microdilution, EFcm 752; conditions: for MIC: read-out: MIC E FCM 752
# Procedure: as §1
# [7] = tested on: Streptococcus pneumoniae 1195 (ATCC 49619); test: MIC, broth microdilution, SPNE 1195; conditions: for MIC: Streptococcus pneumoniae
# Procedure: as §1
# [8] = tested on: Enterococcus faecalis 848 (VRE, Van A); test: MIC, broth microdilution, EFc 848; conditions: for MIC: read-out: MIC E FC 848
# Procedure: as §1
# [9] = tested on: Enterococcus faecalis 101 (ATCC 29212); test: MIC, broth microdilution, EFc 101; conditions: for MIC: Enterococcus faecalis
# Procedure: as §1
# [10] = tested on: Staphylococcus epidermidis 831 (MRSE); test: MIC, broth microdilution, SE 831; conditions: for MIC: Staphylococcus epidermidis, read-out: MIC SE 831
# Procedure: as §1
# [11] = Table 1, VRE, Van A, class symbols
# [12] = Staphylococcus epidermidis, 835, Table 2, in the presence of 0.002% Polysorbate 80, class symbols, read-out: MIC SE 835
# [13] = ATCC29213, Table 2, in the presence of 0.002% Polysorbate 80, class symbols, read-out: MIC SA 100
# [14] = Table 2, in the presence of 0.002% Polysorbate 80, class symbols, read-out: MIC SA 2012
# [15] = Enterococcus faecium, 800, Table 2, in the presence of 0.002% Polysorbate 80, class symbols, read-out: MIC E FCM 800
# [16] = Streptococcus pyogenes, 712, Table 2, in the presence of 0.002% Polysorbate 80, class symbols, read-out: MIC S PYO 712
# [17] = Table 2, in the presence of 0.002% Polysorbate 80, class symbols, read-out: MIC SA 757
# [18] = Table 2, VRE, Van A, in the presence of 0.002% Polysorbate 80, class symbols
# [19] = ATCC49619, Table 2, in the presence of 0.002% Polysorbate 80, class symbols, read-out: MIC S PNE 1195
# [20] = ATCC29212, Table 2, in the presence of 0.002% Polysorbate 80, class symbols, read-out: MIC E FC 101
# [21] = Table 2, in the presence of 0.002% Polysorbate 80, class symbols
# [22] = Table 2, in the presence of 0.002% Polysorbate 80, numeric value, comparison
# [23] = Table 2, VRE, Van A, in the presence of 0.002% Polysorbate 80, numeric value, comparison
compound,measurement,setting,value
CN[C@H](CC(C)C)C(=O)N[C@H]1C(=O)N[C@@H](CC(=O)NS(=O)(=O)c2ccc(OCCOCCOC)cc2)C(=O)N[C@H]2C(=O)N[C@H]3C(=O)N[C@H](C(=O)N[C@H](C(=O)NC4C5CC6CC(C5)CC4C6)c4cc(O)cc(O)c4-c4cc3ccc4O)[C@H](O)c3ccc(c(Cl)c3)Oc3cc2cc(c3O[C@@H]2O[C@H](CN)[C@@H](O)[C@H](O)[C@H]2O)Oc2ccc(cc2Cl)[C@H]1O (stereo partly shown) [Compound 102],MIC,"[1]; Staphylococcus epidermidis, 835, Table 1, class symbols, read-out: MIC SE 835",0.01 to 0.5 µg/mL
same,MIC,"[2]; ATCC29213, Table 1, class symbols, read-out: MIC SA 100",0.01 to 0.5 µg/mL
same,MIC,"[3]; Table 1, class symbols, read-out: MIC SA 2012",0.5 to 1 µg/mL
same,MIC,"Enterococcus faecium 800; Enterococcus faecium, 800, Table 1, class symbols, read-out: MIC E FCM 800",0.01 to 0.5 µg/mL
same,MIC,"[4]; Streptococcus pyogenes, 712, Table 1, class symbols, read-out: MIC S PYO 712",0.01 to 0.5 µg/mL
same,MIC,"[5]; Table 1, class symbols, read-out: MIC SA 757",0.01 to 0.5 µg/mL
same,MIC,[6]; [11],0.5 to 1 µg/mL
same,MIC,"[7]; ATCC49619, Table 1, class symbols, read-out: MIC S PNE 1195",0.01 to 0.5 µg/mL
same,MIC,[8]; [11],2 to 4 µg/mL
same,MIC,"[9]; ATCC29212, Table 1, class symbols, read-out: MIC E FC 101",0.01 to 0.5 µg/mL
same,MIC,"[10]; Table 1, class symbols",0.01 to 0.5 µg/mL
CN[C@H](CC(C)C)C(=O)N[C@H]1C(=O)N[C@@H](CC(=O)NC(=O)c2ccc(OCCCN)c(OCCCN)c2)C(=O)N[C@H]2C(=O)N[C@H]3C(=O)N[C@H](C(=O)N[C@H](C(=O)NC4C5CC6CC(C5)CC4C6)c4cc(O)cc(O)c4-c4cc3ccc4O)[C@H](O)c3ccc(c(Cl)c3)Oc3cc2cc(c3O[C@@H]2O[C@H](CO)[C@@H](O)[C@H](O)[C@H]2O)Oc2ccc(cc2Cl)[C@H]1O (stereo partly shown) [Compound 163],MIC,[1]; [12],1 to 2 µg/mL
same,MIC,[2]; [13],1 to 2 µg/mL
same,MIC,[3]; [14],1 to 2 µg/mL
same,MIC,Enterococcus faecium 800; [15],0.5 to 1 µg/mL
same,MIC,[4]; [16],0.01 to 0.5 µg/mL
same,MIC,[5]; [17],1 to 2 µg/mL
same,MIC,[6]; [18],4 to 8 µg/mL
same,MIC,[7]; [19],0.5 to 1 µg/mL
same,MIC,[8]; [18],> 16 µg/mL
same,MIC,[9]; [20],1 to 2 µg/mL
same,MIC,[10]; [21],0.01 to 0.5 µg/mL
"CN[C@H](CC(C)C)C(=O)N[C@H]1C(=O)N[C@@H](CC(N)=O)C(=O)N[C@H]2C(=O)N[C@H]3C(=O)N[C@H](C(=O)N[C@H](C(=O)O)c4cc(O)cc(O)c4-c4cc3ccc4O)[C@H](O)c3ccc(c(Cl)c3)Oc3cc2cc(c3O[C@@H]2O[C@H](CO)[C@@H](O)[C@H](O)[C@H]2O[C@H]2C[C@](C)(N)[C@H](O)[C@H](C)O2)Oc2ccc(cc2Cl)[C@H]1O [Vancomycin, vancomycin, reference compound]",MIC,"[1]; Staphylococcus epidermidis, 835, read-out: MIC SE 835, Table 1, numeric value, comparison",4 µg/mL
same,MIC,"[1]; Staphylococcus epidermidis, 835, read-out: MIC SE 835, Table 2, in the presence of 0.002% Polysorbate 80, numeric value, comparison",2 µg/mL
same,MIC,"[2]; ATCC29213, read-out: MIC SA 100",1 µg/mL
same,MIC SA 100,[2]; [22],1 µg/mL
same,MIC,"[3]; read-out: MIC SA 2012, Table 1, numeric value, comparison",8 µg/mL
same,MIC,"[3]; read-out: MIC SA 2012, Table 2, in the presence of 0.002% Polysorbate 80, numeric value, comparison",4 µg/mL
same,MIC,"Enterococcus faecium 800; Enterococcus faecium, 800, read-out: MIC E FCM 800",1 µg/mL
same,MIC E FCM 800,Enterococcus faecium 800; [22],1 µg/mL
same,MIC,"[4]; Streptococcus pyogenes, 712, read-out: MIC S PYO 712",0.5 µg/mL
same,MIC S PYO 712,[4]; [22],0.5 µg/mL
same,MIC,"[5]; read-out: MIC SA 757, Table 1, numeric value, comparison",1 µg/mL
same,MIC,"[5]; read-out: MIC SA 757, Table 2, in the presence of 0.002% Polysorbate 80, numeric value, comparison",2 µg/mL
same,MIC E FCM 752,[6]; [23],>64 µg/mL
same,MIC,[6],> 64 µg/mL
same,MIC,"[7]; ATCC49619, read-out: MIC S PNE 1195",0.25 µg/mL
same,MIC S PNE 1195,[7]; [22],0.25 µg/mL
same,MIC E FC 848,[8]; [23],>64 µg/mL
same,MIC,[8],> 64 µg/mL
same,MIC,"[9]; ATCC29212, read-out: MIC E FC 101",4 µg/mL
same,MIC E FC 101,[9]; [22],4 µg/mL
same,MIC,[10],2 µg/mL
same,MIC SE 831,[10]; [22],2 µg/mL
CNCCOc1ccc(C(=O)NC(=O)C[C@@H]2NC(=O)[C@H](NC(=O)[C@@H](CC(C)C)NC)[C@H](O)c3ccc(c(Cl)c3)Oc3cc4cc(c3O[C@@H]3O[C@H](CO)[C@@H](O)[C@H](O)[C@H]3O)Oc3ccc(cc3Cl)[C@@H](O)[C@@H]3NC(=O)[C@H](NC(=O)[C@@H]4NC2=O)c2ccc(O)c(c2)-c2c(O)cc(O)cc2[C@@H](C(=O)NC2C4CC5CC(C4)CC2C5)NC3=O)cc1OCCNC (stereo partly shown) [Compound 160],MIC,[1]; [12],0.5 to 1 µg/mL
same,MIC,[2]; [13],1 to 2 µg/mL
same,MIC,[3]; [14],1 to 2 µg/mL
same,MIC,Enterococcus faecium 800; [15],0.01 to 0.5 µg/mL
same,MIC,[4]; [16],0.01 to 0.5 µg/mL
same,MIC,[5]; [17],1 to 2 µg/mL
same,MIC,[6]; [18],4 to 8 µg/mL
same,MIC,[7]; [19],0.5 to 1 µg/mL
same,MIC,[8]; [18],> 16 µg/mL
same,MIC,[9]; [20],0.5 to 1 µg/mL
same,MIC,[10]; [21],0.01 to 0.5 µg/mL
CN[C@H](CC(C)C)C(=O)N[C@H]1C(=O)N[C@@H](CC(=O)NC(=O)c2ccc(OC)cc2)C(=O)N[C@H]2C(=O)N[C@H]3C(=O)N[C@H](C(=O)N[C@H](C(=O)NC4C5CC6CC(C5)CC4C6)c4cc(O)cc(O)c4-c4cc3ccc4O)[C@H](O)c3ccc(c(Cl)c3)Oc3cc2cc(c3O[C@@H]2O[C@H](CO)[C@@H](O)[C@H](O)[C@H]2O[C@H]2C[C@](C)(N)[C@H](O)[C@H](C)O2)Oc2ccc(cc2Cl)[C@H]1O (stereo partly shown) [Compound 62],MIC,[1]; [12],0.01 to 0.5 µg/mL
same,MIC,[2]; [13],0.01 to 0.5 µg/mL
same,MIC,[3]; [14],2 to 4 µg/mL
same,MIC,Enterococcus faecium 800; [15],0.01 to 0.5 µg/mL
same,MIC,[4]; [16],0.01 to 0.5 µg/mL
same,MIC,[5]; [17],0.01 to 0.5 µg/mL
same,MIC,[6]; [18],0.5 to 1 µg/mL
same,MIC,[7]; [19],0.01 to 0.5 µg/mL
same,MIC,[8]; [18],4 to 8 µg/mL
same,MIC,[9]; [20],0.01 to 0.5 µg/mL
same,MIC,[10]; [21],0.01 to 0.5 µg/mL
CNCCOc1ccc(C(=O)NC(=O)C[C@@H]2NC(=O)[C@H](NC(=O)[C@@H](CC(C)C)NC)[C@H](O)c3ccc(c(Cl)c3)Oc3cc4cc(c3O[C@@H]3O[C@H](CO)[C@@H](O)[C@H](O)[C@H]3O[C@H]3C[C@](C)(N)[C@H](O)[C@H](C)O3)Oc3ccc(cc3Cl)[C@@H](O)[C@@H]3NC(=O)[C@H](NC(=O)[C@@H]4NC2=O)c2ccc(O)c(c2)-c2c(O)cc(O)cc2[C@@H](C(=O)NC2C4CC5CC(C4)CC2C5)NC3=O)cc1 (stereo partly shown) [Compound 67],MIC,[1]; [12],1 to 2 µg/mL
same,MIC,[2]; [13],0.01 to 0.5 µg/mL
same,MIC,[3]; [14],1 to 2 µg/mL
same,MIC,Enterococcus faecium 800; [15],0.01 to 0.5 µg/mL
same,MIC,[4]; [16],0.01 to 0.5 µg/mL
same,MIC,[5]; [17],0.01 to 0.5 µg/mL
same,MIC,[6]; [18],1 to 2 µg/mL
same,MIC,[8]; [18],4 to 8 µg/mL
same,MIC,[9]; [20],0.01 to 0.5 µg/mL
same,MIC,[10]; [21],0.01 to 0.5 µg/mL

# Source: patent publication US20120252741A1, “NOVEL SEMI-SYNTHETIC GLYCOPEPTIDES AS ANTIBACTERIAL AGENTS” (priority 2008, published 2012)
